{"source": "patent US20240156960A1", "about": "(priority 2020, published 2024)", "key": {"[1]": {"test_system": "coronavirus named in the cell (SARS-CoV2, SARS-CoV1), S protein", "details": "cited from earlier work"}, "[2]": {"test_system": "coronavirus named in the cell (SARS-CoV2, SARS-CoV1)", "details": "cited from earlier work"}, "[3]": {"experiment": "Critical toxicity markers after dexamethasone pretreatment and IV DNA vector", "details": "pre-dosed IP 1 to 40 mg/kg"}, "[4]": {"test_system": "SARS-CoV2", "details": "Protein + Epitope: S; literature source; cited from earlier work"}, "[5]": {"test_system": "SARS-CoV1", "details": "cited from earlier work"}, "[6]": {"test_system": "SARS-CoV1", "details": "cited from earlier work", "remark": "listed apart in the source"}, "[7]": {"biological_target": "SARS-CoV2 S; RBD (Severe acute respiratory syndrome coronavirus 2, UniProt P0DTC2)", "details": "epitope S; cited from earlier work"}, "[8]": {"details": "mouse, in vivo"}, "[9]": {"test_system": "SARS-CoV2", "details": "SARS-CoV2 listed as bound; cited from earlier work"}, "[10]": {"test_system": "SARS-CoV2", "details": "SARS-CoV2 listed as neutralised; cited from earlier work"}, "[11]": {"test_system": "SARS-CoV2", "details": "source Seth Zost et al., 2020; cited from earlier work"}, "[12]": {"experiment": "Serum ALT/AST levels (toxicity) after liposome and DNA injection"}, "[13]": {"experiment": "Serum hG-CSF protein by ELISA after DOTAP liposomes, hG-CSF plasmid DNA and immuno-modulating agents", "assay_type": "in vivo, CD-1 mice"}, "[14]": {"test_system": "mouse IGF-1", "experiment": "Serum levels of mouse IGF-1 by ELISA (hGH bioactivity)", "assay_type": "in vivo", "details": "CD-1 mice, day 127 after injection (Example 10)"}, "[15]": {"details": "IP 2 hours prior to lipid and DNA injection (Example 20 Part 4)"}, "[16]": {"details": "agent in liposomes pre-injected IP prior to cationic liposomes (Example 16 Part 3)"}, "[17]": {"details": "agent incorporated into cationic liposomes (900 nmol DOTAP SUV), 70 ug hG-CSF DNA, day 1"}}, "note": "Like-named read-outs stand apart in the source and are kept apart here.", "data": [{"compound": "4A8", "values": [{"measurement": "Binds to", "setting": "[1]", "value": "SARS-CoV2"}, {"measurement": "Neutralising Vs", "setting": "[2]", "value": "SARS-CoV2"}]}, {"compound": "C[C@@H]1C[C@H]2[C@@H]3CCC4=CC(=O)C=C[C@]4(C)[C@@]3(F)[C@@H](O)C[C@]2(C)[C@@]1(O)C(=O)CO", "note": "[dexamethasone]", "values": [{"measurement": "critical toxicity markers", "setting": "[3]", "value": "at or closely approximating background control levels"}]}, {"compound": "B38", "values": [{"measurement": "Binds to", "setting": "[4]", "value": "SARS-CoV2"}]}, {"compound": "BD23", "values": [{"measurement": "Binds to", "setting": "[4]", "value": "SARS-CoV2"}]}, {"compound": "C002", "values": [{"measurement": "Not Neutralising Vs", "setting": "[5]", "value": "SARS-CoV1"}, {"measurement": "Binds to", "setting": "[4]", "value": "SARS-CoV2"}]}, {"compound": "C003", "values": [{"measurement": "Not Neutralising Vs", "setting": "[5]", "value": "SARS-CoV1"}, {"measurement": "Binds to", "setting": "[4]", "value": "SARS-CoV2"}]}, {"compound": "C005", "values": [{"measurement": "Not Neutralising Vs", "setting": "[5]", "value": "SARS-CoV1"}, {"measurement": "Binds to", "setting": "[4]", "value": "SARS-CoV2"}]}, {"compound": "C006", "values": [{"measurement": "Not Neutralising Vs", "setting": "[5]", "value": "SARS-CoV1"}, {"measurement": "Binds to", "setting": "[4]", "value": "SARS-CoV2"}]}, {"compound": "C013", "values": [{"measurement": "Not Neutralising Vs", "setting": "[5]", "value": "SARS-CoV1"}, {"measurement": "Binds to", "setting": "[4]", "value": "SARS-CoV2"}]}, {"compound": "C016", "values": [{"measurement": "Not Neutralising Vs", "setting": "[5]", "value": "SARS-CoV1,"}, {"measurement": "Binds to", "setting": "[4]", "value": "SARS-CoV2"}]}, {"compound": "C018", "values": [{"measurement": "Not Neutralising Vs", "setting": "[6]", "value": "SARS-CoV1,"}, {"measurement": "Binds to", "setting": "[7]", "value": "SARS-CoV2"}]}, {"compound": "C021", "values": [{"measurement": "Not Neutralising Vs", "setting": "[6]", "value": "SARS-CoV1,"}, {"measurement": "Binds to", "setting": "[7]", "value": "SARS-CoV2"}]}, {"compound": "C029", "values": [{"measurement": "Not Neutralising Vs", "setting": "[6]", "value": "SARS-CoV1,"}, {"measurement": "Binds to", "setting": "[7]", "value": "SARS-CoV2"}]}, {"compound": "C102", "values": [{"measurement": "Binds to", "setting": "[7]", "value": "SARS-CoV2"}]}, {"compound": "C107", "values": [{"measurement": "Not Neutralising Vs", "setting": "[6]", "value": "SARS-CoV1,"}, {"measurement": "Binds to", "setting": "[7]", "value": "SARS-CoV2"}]}, {"compound": "C112", "values": [{"measurement": "Binds to", "setting": "[7]", "value": "SARS-CoV2"}]}, {"compound": "C119", "values": [{"measurement": "Binds to", "setting": "[7]", "value": "SARS-CoV2"}]}, {"compound": "C121", "values": [{"measurement": "Binds to", "setting": "[7]", "value": "SARS-CoV2"}, {"measurement": "duration of fully neutralizing serum levels of each SARS-CoV2-specific mAb", "setting": "[8]", "value": "at least 134 days"}]}, {"compound": "CB6", "values": [{"measurement": "Binds to", "setting": "[9]", "value": "SARS-CoV2"}, {"measurement": "Neutralising Vs", "setting": "[10]", "value": "SARS-CoV2"}]}, {"compound": "CoV2-2130", "values": [{"measurement": "Binds to", "setting": "[11]", "value": "SARS-CoV2"}]}, {"compound": "CoV2-2196", "values": [{"measurement": "Binds to", "setting": "[11]", "value": "SARS-CoV2"}]}, {"compound": "N-Acetyl-De-O-Sulfated Heparin [NSH]", "values": [{"measurement": "toxicity (serum ALT/AST)", "setting": "[12]; IP 0.25 or 1 mg per mouse, 2 hours pre or 2 hours post lipid and DNA injection", "value": "reduce toxicity"}, {"measurement": "toxicity (serum ALT/AST)", "setting": "[12]; [15]", "value": "further reducing its toxicity"}, {"measurement": "gene expression (serum hG-CSF)", "setting": "[13]; [15]", "value": "further increase gene expression"}]}, {"compound": "dexamethasone 21-palmitate [dexamethasone palmitate]", "values": [{"measurement": "toxicity (ALT levels)", "setting": "[12]; [16]", "value": "further decrease toxicity"}, {"measurement": "toxicity (ALT levels)", "setting": "[12]; [17]", "value": "further decrease toxicity"}, {"measurement": "peak levels of gene expression (serum hG-CSF)", "setting": "[13]; 5 mole percent in DOTAP SUV, otherwise ineffective hG-CSF-DNA dose (Example 16 Part 6)", "value": "further increase peak levels of gene expression"}, {"measurement": "gene expression (serum hG-CSF)", "setting": "[13]; [16]", "value": "further increase gene expression"}, {"measurement": "gene expression (serum hG-CSF)", "setting": "[13]; [17]", "value": "further increase gene expression"}]}, {"compound": "hGH", "values": [{"measurement": "bioactivity of cDNA-encoded hGH protein (increase of endogenous mouse IGF-1)", "setting": "[14]", "value": "fully bioactive"}]}]}
